Laboratory results as given in publication PMC7930822, “Phase I Trial to Evaluate the Tolerance, Pharmacokinetics and Efficacy of the Broad-Spectrum ErbB Family Inhibitor Larotinib Mesylate in Patients With Advanced Solid Tumors” (Frontiers in Pharmacology, 2021).
Where a name gives a salt, the structure may show the parent alone. Read-outs that look alike come from different tables or passages of the source.

Assay: phase I plasma pharmacokinetics (non-compartmental, LC-MS/MS)
Format: in vivo, human
Settings: plasma, plasma; for Tmax / Vd/F / AUC(0-t) / AUC(0-inf) / Cmax / half-life / AUC: human; for Tmax / Vd/F / AUC(0-t) / AUC(0-inf) / Cmax / half-life: po; for AUC: read-out: AUCτ,ss, mean (min–max)
Description: This was a phase I, single-center, open-label, dose-escalation study conducted at First Hospital of Jilin University, China (registration no.: ChiCTR-OPC-15007153 registered at http://www.chictr.org.cn). Larotinib mesylate hard capsules were produced and supplied by Sunshine Lake Pharma Co., Ltd (Guangdong Province, China) in different unit doses of […] under GMP condition. Seven dose levels were designed in the study: 50, 100, 150, 220, 300, 350, and 400 mg with administration stages labeled cycle 0, cycle 1, and subsequent treatment cycles. Patients received an oral single dose of larotinib mesylate after fasting during a 6-days cycle 0 to evaluate the tolerance and pharmacokinetic characteristics. After cycle 0, larotinib mesylate was continuously administered once daily for 28 days in cycle 1, and the tolerance and pharmacokinetic characteristics of multiple doses were evaluated (Figure 2). The patients who […] disease control (complete response [CR], partial response [PR], or stable disease [SD]) at the end of cycle one were permitted to participate in the subsequent 28-days treatment cycles until progressive disease (PD) or intolerance was observed.
Blood samples (4 ml) for pharmacokinetic analyses were collected in tubes containing K2EDTA anticoagulant. Blood samples were centrifuged at 3,000 rpm for 10 min at 4°C and stored at –80°C until liquid chromatography-mass spectrophotometry (LC-MS/MS) analysis. Urine and fecal samples were collected only when patients were given the150-mg and 220-mg dose levels at sampling time intervals of 0–4, 4–8, 8–12, 12–24, 24–48, 48–72, 72–96 and 96–120 h in cycle 0.
Linear mixed effects model was used to explore the dose exposure relationships. Dose proportionality was concluded if the 95% confidence interval (CI) of the linear regression slope was completely contained within the decision interval (1 + ln (0.8)/ln (8)∼1 + ln (1.25)/ln (8)). For urine and fecal data, the accumulative excretion rates of larotinib and M5 were calculated.
Bioanalysis was performed at Frontage Company (Shanghai, China). Validated high-performance LC-MS/MS method was used to quantify the concentrations of larotinib and M5 in plasma, urine and feces samples. Protein precipitation was employed for plasma, urine and feces processing. Plasma larotinib and M5 concentrations were determined using appropriate calibration curves obtained from standards in the range of 0.5–1,000 ng/ml. The interassay precision of the analysis method were 4.2–5.4% for larotinib and 3.9–4.3% for M5. The interassay accuracy of the analysis method were 100.4–103.4% for larotinib and 102.2–102.9% for M5, respectively.
Statistical analyses were performed using SAS software, version 9.2 (SAS Institute Inc., United States). Descriptive statistics were used to summarize continuous variables as cases, means with standard deviations (SDs), medians, quartiles, maximums and minimums. For categorical variables, frequencies and percentages were used. A linear mixed effects model, relating log-transformed Cmax and AUC parameters to log-transformed dose, was used to investigate dose proportionality.

[1] = multiple oral administration, 50 mg larotinib mesylate, steady state
[2] = multiple oral administration, 100 mg larotinib mesylate, steady state
[3] = multiple oral administration, 150 mg larotinib mesylate, steady state
[4] = multiple oral administration, 220 mg larotinib mesylate, steady state
[5] = multiple oral administration, 300 mg larotinib mesylate, steady state
[6] = multiple oral administration, 350 mg larotinib mesylate, steady state
[7] = multiple oral administration, 400 mg larotinib mesylate, steady state

COc1cc2ncnc(Nc3ccc(F)c(Cl)c3)c2cc1OCCCN1C[C@@H]2OCCO[C@@H]2C1 [larotinib mesylate]
Tmax (300 mg, multiple oral administration, 300 mg larotinib mesylate, steady state, read-out: Tmax,ss, median (min–max)): 5 h | Vd/F (300 mg, multiple oral administration, 300 mg larotinib mesylate, steady state, read-out: Vz/F,ss, mean (min–max)): 1060 L | AUC(0-t) (300 mg, single oral administration, 300 mg larotinib mesylate, read-out: AUC0-24, mean (min–max)): 2690 ng·h/mL | AUC(0-t) (300 mg, single oral administration, 300 mg larotinib mesylate, read-out: AUC0-t, mean (min–max)): 4880 ng·h/mL | AUC(0-inf) (300 mg, single oral administration, 300 mg larotinib mesylate, read-out: AUC0-∞, mean (min–max)): 5550 ng·h/mL | Cmax (300 mg, single oral administration, 300 mg larotinib mesylate, read-out: Cmax, mean (min–max)): 267 ng/mL | half-life (300 mg, single oral administration, 300 mg larotinib mesylate, read-out: T1/2, mean (min–max) (converted)): 46.2 h | Tmax (300 mg, single oral administration, 300 mg larotinib mesylate, read-out: Tmax, median (min–max)): 5 h | Vd/F (300 mg, single oral administration, 300 mg larotinib mesylate, read-out: Vz/F, mean (min–max)): 4340 L | AUC(0-t) (350 mg, multiple oral administration, 350 mg larotinib mesylate, steady state, read-out: AUC0-t,ss, mean (min–max)): 35900 ng·h/mL | AUC(0-inf) (350 mg, multiple oral administration, 350 mg larotinib mesylate, steady state, read-out: AUC0-∞,ss, mean (min–max)): 47300 ng·h/mL | Cmax (350 mg, multiple oral administration, 350 mg larotinib mesylate, steady state, read-out: Cmax,ss, mean (min–max)): 695 ng/mL | half-life (350 mg, multiple oral administration, 350 mg larotinib mesylate, steady state, read-out: T1/2,ss, mean (min–max) (converted)): 58.6 h | Tmax (350 mg, multiple oral administration, 350 mg larotinib mesylate, steady state, read-out: Tmax,ss, median (min–max)): 5 h | Vd/F (350 mg, multiple oral administration, 350 mg larotinib mesylate, steady state, read-out: Vz/F,ss, mean (min–max)): 641 L | AUC(0-t) (350 mg, single oral administration, 350 mg larotinib mesylate, read-out: AUC0-24, mean (min–max)): 3240 ng·h/mL | AUC(0-t) (350 mg, single oral administration, 350 mg larotinib mesylate, read-out: AUC0-t, mean (min–max)): 6120 ng·h/mL | AUC(0-inf) (350 mg, single oral administration, 350 mg larotinib mesylate, read-out: AUC0-∞, mean (min–max)): 6830 ng·h/mL | Cmax (350 mg, single oral administration, 350 mg larotinib mesylate, read-out: Cmax, mean (min–max)): 300 ng/mL | half-life (350 mg, single oral administration, 350 mg larotinib mesylate, read-out: T1/2, mean (min–max) (converted)): 44.6 h | Tmax (350 mg, single oral administration, 350 mg larotinib mesylate, read-out: Tmax, median (min–max)): 3.5 h | Vd/F (350 mg, single oral administration, 350 mg larotinib mesylate, read-out: Vz/F, mean (min–max)): 3800 L | AUC(0-t) (400 mg, multiple oral administration, 400 mg larotinib mesylate, steady state, read-out: AUC0-t,ss, mean (min–max)): 45000 ng·h/mL | AUC(0-inf) (400 mg, multiple oral administration, 400 mg larotinib mesylate, steady state, read-out: AUC0-∞,ss, mean (min–max)): 70400 ng·h/mL | Cmax (400 mg, multiple oral administration, 400 mg larotinib mesylate, steady state, read-out: Cmax,ss, mean (min–max)): 845 ng/mL | half-life (400 mg, multiple oral administration, 400 mg larotinib mesylate, steady state, read-out: T1/2,ss, mean (min–max) (converted)): 87 h | Tmax (400 mg, multiple oral administration, 400 mg larotinib mesylate, steady state, read-out: Tmax,ss, median (min–max)): 6 h | Vd/F (400 mg, multiple oral administration, 400 mg larotinib mesylate, steady state, read-out: Vz/F,ss, mean (min–max)): 754 L | AUC(0-t) (400 mg, single oral administration, 400 mg larotinib mesylate, read-out: AUC0-24, mean (min–max)): 3970 ng·h/mL | AUC(0-t) (400 mg, single oral administration, 400 mg larotinib mesylate, read-out: AUC0-t, mean (min–max)): 7440 ng·h/mL | AUC(0-inf) (400 mg, single oral administration, 400 mg larotinib mesylate, read-out: AUC0-∞, mean (min–max)): 9090 ng·h/mL | Cmax (400 mg, single oral administration, 400 mg larotinib mesylate, read-out: Cmax, mean (min–max)): 354 ng/mL | half-life (400 mg, single oral administration, 400 mg larotinib mesylate, read-out: T1/2, mean (min–max) (converted)): 68.6 h | Tmax (400 mg, single oral administration, 400 mg larotinib mesylate, read-out: Tmax, median (min–max)): 5 h | Vd/F (400 mg, single oral administration, 400 mg larotinib mesylate, read-out: Vz/F, mean (min–max)): 7410 L | half-life (single oral dose, across 50–400 mg, read-out: mean t1/2): 39.3 to 68.6 h | Tmax (single oral dose, across 50–400 mg, read-out: median Tmax): 3.5 to 6 h | AUC [1]: 1220 ng·h/mL | AUC [2]: 1970 ng·h/mL | AUC [3]: 6500 ng·h/mL | AUC [4]: 10300 ng·h/mL | AUC [5]: 7260 ng·h/mL | AUC [6]: 13200 ng·h/mL | AUC [7]: 16100 ng·h/mL | CL/F,ss, mean (min–max) [1]: 10.73 (7.513–12.58) L/h | CL/F,ss, mean (min–max) [2]: 21.17 (13.80–29.53) L/h | CL/F,ss, mean (min–max) [3]: 6.512 (4.414–7.565) L/h | CL/F,ss, mean (min–max) [4]: 5.126 (4.592–6.098) L/h | CL/F,ss, mean (min–max) [5]: 13.91 (10.58–18.36) L/h | CL/F,ss, mean (min–max) [6]: 7.648 (5.819–8.842) L/h | CL/F,ss, mean (min–max) [7]: 6.087 (4.160–7.894) L/h | CL/F, mean (min–max) (single oral administration, 50 mg larotinib mesylate): 62.01 (54.17–71.3) L/h | CL/F, mean (min–max) (single oral administration, 100 mg larotinib mesylate): 73.81 (62.61–90.83) L/h | CL/F, mean (min–max) (single oral administration, 150 mg larotinib mesylate): 29.11 (18.30–38.09) L/h | CL/F, mean (min–max) (single oral administration, 220 mg larotinib mesylate): 27.79 (24.27–33.83) L/h | CL/F, mean (min–max) (single oral administration, 300 mg larotinib mesylate): 63.76 (30.15–116.4) L/h | CL/F, mean (min–max) (single oral administration, 350 mg larotinib mesylate): 55.78 (36.19–73.27) L/h | CL/F, mean (min–max) (single oral administration, 400 mg larotinib mesylate): 70.47 (29.90–145.6) L/h
